One experiment concerns A. terreus 49. Description: Minimum inhibitory concentration, YAG medium. It is filed as cell-based, Aspergillus terreus. Conditions: banded MIC grade; for MIC: Aspergillus terreus, 49, YAG media. The method in brief:
(§1)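 MIC in mg/L, from OD485 growth read-out after 24 hrs at 35° C in YAG medium with Aspergillus spores. Doubling dilutions in water made from a 5 mg/mL DMSO stock.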

Another experiment concerns A. fumigatus 210. Briefly: Minimum inhibitory concentration, YAG medium. Format: cell-based, Aspergillus fumigatus. Conditions: banded MIC grade; for MIC: Aspergillus fumigatus, 210, YAG media. The method in brief: (§2)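 Broth microdilution in YAG medium; inoculum 1-2×10^4 cfu/mL; compound 50-0.05 mg/L in doubling steps, from DMSO stock. 24 h, 35° C. Read OD 485 nm; MIC = lowest conc. inhibiting growth >70% vs no-drug control, in mg/L.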

In a further experiment the test system is Aspergillus fumigatus. Briefly: Minimum inhibitory concentration, YAG medium. It is filed as cell-based. The settings on record: banded MIC grade; for MIC: Aspergillus fumigatus, YAG media. The method in brief:
as §2

The next experiment relates to C. albicans. Description: Minimum inhibitory concentration, RPMI medium. The settings on record: banded MIC grade; for MIC: Candida albicans, RPMI media. Format: cell-based. The gist of the method: (§3)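 Growth was measured by OD at 485 nm after 24-48 hrs at 35° C in RPMI 1640 medium. Compound was serially diluted twofold in water, starting from a 5 mg/mL DMSO stock solution.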

In a further experiment the test system is C. tropicalis. Description: Minimum inhibitory concentration, RPMI medium. It is filed as cell-based. Conditions: banded MIC grade; for MIC: Candida tropicalis, RPMI media. The method in brief: as §3
For a further experiment, the system named is C. parapsilosis. Description: Minimum inhibitory concentration, RPMI medium. It is filed as cell-based. The settings on record: banded MIC grade; for MIC: Lodderomyces parapsilosis, RPMI media. The method in brief: as §3
Another experiment deals with Aspergillus terreus. Description: Minimum inhibitory concentration, YAG medium. It is filed as cell-based. Conditions: banded MIC grade; for MIC: Aspergillus terreus, YAG media. The method in brief:
as §1

The test system of a further experiment is Aspergillus flavus. Description: Minimum inhibitory concentration, YAG medium. It is filed as cell-based. Conditions: banded MIC grade; for MIC: Aspergillus flavus, YAG media. The gist of the method:
as §1

The test system of the next experiment is Aspergillus niger. Description: Minimum inhibitory concentration, YAG medium. Format: cell-based. Conditions: banded MIC grade; for MIC: Aspergillus niger, YAG media. The method in brief:
as §1

The mark [1] stands for this setting: read-out: MIC grade C. ALBICANS
Where [2] appears, read: read-out: MIC grade, C. ALBICANS, RPMI media.
The mark [3] stands for this setting: read-out: MIC grade C. PARAPSILOSIS
Where [4] appears, read: read-out: MIC grade, C. PARAPSILOSIS, RPMI media.

Molecules are shown by their SMILES. In brackets after ≈: the same amount, converted by molar mass. Like-named read-outs stand apart in the source and are kept apart here. Some results are limits rather than exact numbers.

In the case of `COc1ccc(C2=CSC(N)=NN2C)cc1` [5-(4-methoxyphenyl)-4-methyl-1,3,4-thiadiazin-2-amine], the minimal inhibitory concentration (MIC) – broadly, the lowest concentration found to suppress growth – in the experiment with A. terreus 49 was under 0.2 µg/mL; in the experiment with A. fumigatus 210 it was under 0.2 µg/mL; against Aspergillus fumigatus, under 0.2 µg/mL; in the experiment with C. albicans (setting [1]), under 1 µg/mL; in the experiment with C. albicans (setting [2]), under 1 µg/mL; against C. tropicalis, 1 to 5 µg/mL (≈ 4.25 to 21.2 µM). Besides, the MIC was under 1 µg/mL in the experiment with C. parapsilosis (setting [3]); under 1 µg/mL with C. parapsilosis (setting [4]); under 0.2 µg/mL against Aspergillus terreus; under 0.2 µg/mL against Aspergillus flavus; under 0.2 µg/mL against Aspergillus niger.

Consider `CN1N=C(N)SC=C1c1cc2ccccc2o1` [5-(benzofuran-2-yl)-4-methyl-1,3,4-thiadiazin-2-amine], for which the MIC was 0.2 to 1 µg/mL (≈ 0.815 to 4.08 µM) against A. terreus 49; 0.2 to 1 µg/mL (≈ 0.815 to 4.08 µM) with A. fumigatus 210; 1 to 5 µg/mL (≈ 4.08 to 20.4 µM) against Aspergillus fumigatus; 5 to 20 µg/mL (≈ 20.4 to 81.5 µM) in the experiment with C. albicans (setting [1]); at least 20 µg/mL with C. albicans (setting [2]); at least 20 µg/mL against C. tropicalis. Also, the MIC in the experiment with C. parapsilosis (setting [3]) is 5 to 20 µg/mL (≈ 20.4 to 81.5 µM); with C. parapsilosis (setting [4]) it was at least 20 µg/mL; with Aspergillus terreus it was 0.2 to 1 µg/mL (≈ 0.815 to 4.08 µM); in the experiment on Aspergillus flavus, 1 to 5 µg/mL (≈ 4.08 to 20.4 µM); in the experiment on Aspergillus niger it was 1 to 5 µg/mL (≈ 4.08 to 20.4 µM).

Take `CCCCCCCC1=CSC(N)=NN1` [5-heptyl-4~{H}-1,3,4-thiadiazin-2-amine]: the “MIC grade, A. TERREUS 49, YAG media” value against A. terreus 49 is recorded as 3 (3: 0.2-1 mg/L). In addition, in the experiment with A. fumigatus 210, the “MIC grade, A. FUMIGATUS 210, YAG media” value is 4 (4: <0.2 mg/L). The “MIC grade, A. FUMIGATUS, YAG media” value in the experiment on Aspergillus fumigatus is given as 4 (4: <0.2 mg/L). In the experiment on C. albicans, the “MIC grade, C. ALBICANS, RPMI media” value was 3 (3: 1-5 mg/L). Also, the “MIC grade, C. TROPICALIS, RPMI media” value with C. tropicalis was 3 (3: 1-5 mg/L). Also, the “MIC grade, C. PARAPSILOSIS, RPMI media” value in the experiment on C. parapsilosis is listed as 3 (3: 1-5 mg/L). For the same compound, the “MIC grade, A. TERREUS, YAG media” value in the experiment with Aspergillus terreus is given as 4 (4: <0.2 mg/L). Moreover, the “MIC grade, A. FLAVUS, YAG media” value in the experiment with Aspergillus flavus is reported as 4 (4: <0.2 mg/L). Further, the “MIC grade, A. NIGER, YAG media” value against Aspergillus niger was 4 (4: <0.2 mg/L).

For `NC1=NN=C(c2ccccc2)CS1` [5-phenyl-6~{H}-1,3,4-thiadiazin-2-amine], the “MIC grade, A. TERREUS 49, YAG media” value in the experiment on A. terreus 49 is 3 (3: 0.2-1 mg/L). Also, the “MIC grade, A. FUMIGATUS 210, YAG media” value with A. fumigatus 210 was 3 (3: 0.2-1 mg/L). The “MIC grade, A. FUMIGATUS, YAG media” value in the experiment with Aspergillus fumigatus is recorded as 3 (3: 0.2-1 mg/L). Moreover, the “MIC grade, C. ALBICANS, RPMI media” value against C. albicans is recorded as 1 (1: ≥20 mg/L). Also, the “MIC grade, C. TROPICALIS, RPMI media” value against C. tropicalis is on record as 1 (1: ≥20 mg/L). Besides, the “MIC grade, C. PARAPSILOSIS, RPMI media” value in the experiment on C. parapsilosis is recorded as 1 (1: ≥20 mg/L). Also, in the experiment with Aspergillus terreus, the “MIC grade, A. TERREUS, YAG media” value is recorded as 3 (3: 0.2-1 mg/L). Besides, in the experiment with Aspergillus flavus, the “MIC grade, A. FLAVUS, YAG media” value is reported as 3 (3: 0.2-1 mg/L). The “MIC grade, A. NIGER, YAG media” value against Aspergillus niger was 3 (3: 0.2-1 mg/L).

Turning to `CCOC(=O)c1ccc(C2=CSC(N)=NN2C)cc1` [ethyl 4-(2-amino-4-methyl-1,3,4-thiadiazin-5-yl)benzoate], the MIC is 0.2 to 1 µg/mL (≈ 0.721 to 3.61 µM) in the experiment with A. terreus 49; under 0.2 µg/mL in the experiment on A. fumigatus 210; under 0.2 µg/mL against Aspergillus fumigatus; under 1 µg/mL in the experiment with C. albicans (setting [1]); 1 to 5 µg/mL (≈ 3.61 to 18 µM) in the experiment on C. albicans (setting [2]); 1 to 5 µg/mL (≈ 3.61 to 18 µM) with C. tropicalis. The MIC with C. parapsilosis (setting [3]) was under 1 µg/mL; in the experiment on C. parapsilosis (setting [4]) it was under 1 µg/mL; with Aspergillus terreus, under 0.2 µg/mL; in the experiment with Aspergillus flavus, under 0.2 µg/mL; in the experiment with Aspergillus niger, 0.2 to 1 µg/mL (≈ 0.721 to 3.61 µM).

The values above are taken from patent US20180201592A1, “2-AMINO-1,3,4-THIADIAZINE AND 2-AMINO-1,3,4-OXADIAZINE BASED ANTIFUNGAL AGENTS” (F2G Limited, priority 2015, published 2018).
